B1: IL-6: Porcine interleukin 6 (R&D systems) (protein, UniProt P26893 30-212, looked up)
Interleukin-6: ERLEEDAKGDATSDKMLFTSPDKTEELIKYILGKISAMRKEMCEKYEKCENSKEVLAENNLNLPKMAEKDGCFQSGFNQETCLMRITTGLVEFQIYLDYLQKEYESNKGNVEAVQISTKALIQTLRQKGKNPDKATTPNPTTNAGLLDKLQSQNEWMKNTKIILILRSLEDFLQFSLRAIRIM
B2: IL-10: Porcine interleukin 10 (R&D systems) (protein, UniProt Q29055 19-175, looked up)
Interleukin-10: SIKSENSCIHFPTSLPHMLRELRAAFGPVKSFFQTKDQMGDLLLTGSLLEDFKGYLGCQALSEMIQFYLEDVMPKAESDGEDIKEHVNSLGEKLKTLRLRLRRCHQFLPCENKSKAVEEVKSAFSKLQERGVYKAMGEFDIFINYIEAYMTMKMRKN

Experiments:
[1] = tested on: PCV2-infected PK-15 cells; experiment: Number of PCV2-infected PK-15 cells (IPMA) after treatment with cytokines or natural cytokine sources; format: cell-based, Porcine circovirus 2; conditions: PK-15 cells; cytokine dilution series, before, during or after inoculation; 36 h
Description: PK-15 cells were seeded and maintained in culture medium containing 5%-10% fetal bovine serum (FBS), 0.3 mg/ml glutamine, 100 U/ml penicillin, 0.1 mg/ml streptomycin, 0.1 mg/ml kanamycin dissolved in minimal essential medium (MEM) (Gibco BRL®, Grand Island, USA) or dissolved in RPMI-1640 (GIBCO BRL®, Grand Island, USA) containing 1% nonessential amino acids (100×; GIBCO BRL®, Grand Island, USA) and 1 mM sodium pyruvate (GIBCO BRL®, Grand Island, USA). Cells were seeded at a concentration of 150,000 cells per ml of medium. For the detection of total viral antigen positive cells, the cells were seeded in 96-well microtiter plates (Nunc) (15,000-20,000 cells per well). To detect the expression of specific viral antigens, cells were seeded on sterile cover slips in Leighton tubes (150,000 cells per tube) and finally progeny virus production assays were performed in 24-well plates containing […].
(§1) In order to use cells, more related to the target cells in vivo, the monocytic cell line 3D4/31 was used to confirm the effect of the different cytokines on the number of PCV2-infected cells. The 3D4/31 cell line is a porcine monomyeloid cell lines that was established following transfection of primary porcine alveolar macrophage cultures with plasmid pSV3neo, carrying genes for neomycin resistance and SV40 large T antigen. (Weingartl et al. (2002) J Virol Methods. 10, 203-216). These cells were maintained in a 1:1 mixture of RPMI-1640 (Invitrogen) and DMEM (Invitrogen) supplemented with 10% fetal bovine serum, 0.3 mg/ml glutamine, 100 U/ml penicillin, 0.1 mg/ml streptomycin, 0.1 mg/ml kanamycin and 1% non-essential amino acids 100× (GIBCO BRL®, Grand Island, USA). These experiments were also performed in 96-well plates containing the same number of cells. Furthermore, to monitor the effect of IFN-gamma on the entry of PCV2 virion-like particles was determined, 3D4/31 cells were seeded at 2×10^5 cells/ml of medium onto microscopic slides mounted with an 8 well cell culture silicone chamber (Vivascience AG, Hanover). In all inoculations, the same PCV2-strain (Stoon-1010) was used at a multiplicity of infection of 0.01. The virus was diluted in MEM and inoculated on the cell cultures by incubating cells and virus for 1 hour at 37° C. After 1 hour, the inoculum was removed, the cultures were washed twice with MEM and new culture medium was added.
(§2) The influence of the cytokines on the infection of PCV2 in PK-15 and 3D4/31 cells was determined by adding two-fold-dilution series of the cytokines to the medium of the cells before, during or after the inoculation. IL-1, IL-6, […] and IFN-alpha were used in concentrations ranging from 0.25-250 Units/ml (U/ml), IFN-gamma was used in concentrations ranging from 0.25-1000 U/ml and IL-10 was used in concentrations from 0.13-125 U/ml. Cell cultures were either pre-treated with the cytokines for 24 hours before inoculation, treated during the inoculation or the cytokines were added in the medium after the inoculation. After 36 hours of incubation at 37° C. in an environment supplemented with 5% CO2, the cells were fixed by drying and frozen at −20° C. The plates were stained with an immuno-peroxydase monolayer assay (IPMA) as described by Sanchez et al. (2003, Vet Microbiol 95, 15-25) and the number of PCV2-positive cells was counted by light microscopy. In each plate a control was inoculated with an equal dose of mock-treated PCV2 (treated with MEM without cytokines). The number of infected cells in this well was used as the reference and all results were expressed as a ratio to this reference.
Two-fold dilutions of the BAL-fluids of the PRCV and mock-inoculated pigs were added to the medium of PCV2-inoculated PK-15 cells after inoculation. Concentrations of the added BAL-fluids ranged from 1.25 to 5%. Supernatants of ConA and mock-stimulated PBMC's were also added to the culture medium of PK-15 cells after inoculation in concentrations ranging from […] to 50%. […]

[2] = tested on: PCV2-infected 3D4/31 cells; experiment: Number of PCV2-infected 3D4/31 cells (IPMA) after cytokine treatment; format: cell-based, Porcine circovirus 2; conditions: 3D4/31 cells; any concentration, before, during or after inoculation
Description: as §1, §2

[3] = tested on: PCV2 strain Stoon-1010 in PK-15 cells; experiment: Progeny PCV2 production in PK-15 cells with acidification inhibitors and/or IFN-gamma; format: cell-based, Porcine circovirus 2
Description: For progeny virus production assays, 2×10^5 cells were seeded in every well of 24-well cell culture plates. Cells were pre-treated with or without 500 U/ml IFN-gamma at 6 hours post seeding. At 24 h post-seeding, cells were washed and inoculated with the prototype PCV2 strain Stoon-1010 at an m.o.i. of 0.3 for 1 hour at 37° C. The viral inoculum was washed-off and cells were further incubated in 1 ml of culture medium with or without 25 mM ammonium chloride, 125 μM chloroquine diphosphate and/or 6 μM monensin for 24 hours. Then, the culture medium with or without endosomal-lysosomal system acidification inhibitors was replaced with fresh culture medium without inhibitors. At 1, 24, 48 and 72 hours post-inoculation the supernatant was collected. Subsequently the culture was washed once with 1 ml PBS. Both the supernatant and the washing fluid were centrifuged for 10 minutes at 15,000×g to pellet cells and debris. The centrifuged supernatant and washing fluids were combined and considered to contain the extracellular virus. Both pellets and cell cultures were freeze-thawed three times and considered to contain the intracellular virus. Intra- and extracellular virus titres were determined by titration on PCV-negative PK-15 cells as described previously. Viral antigens were detected using an IPMA as described above and PCV2 titre was expressed as log10 TCID50 per 10^5 cells.

[4] = tested on: PCV2 infection of PK-15 cells; experiment: Number of PCV2-infected PK-15 cells (IPMA) with endosomal-lysosomal acidification inhibitors with or without IFN-gamma; format: cell-based, Porcine circovirus 2; conditions: for effect on PCV2 infection in IFN-gamma treated cells (in words): PK-15 pre-treated with 500 U/ml IFN-gamma 24 hours; for effect on PCV2 infection in IFN-gamma treated cells (in words) / effect on PCV2 infection compared to control (in words): inhibitor 24 hours after inoculation, 36 hpi; for effect on PCV2 infection compared to control (in words): PK-15 without IFN-gamma; for highest concentration exerting maximal effect without affecting cell viability (chosen): two-fold dilution in PK-15 cells, Stoon-1010
Description: Endosomal-lysosomal system acidification was inhibited using lysosomotropic weak bases (ammonium chloride and chloroquine diphosphate) and carboxylic ionophore monensin. All chemical compounds were purchased from Sigma. In a first set of experiments, a two-fold dilution of each inhibitor in PK-15 cells using Stoon-1010 was performed to determine the highest concentration of each inhibitor that exerted the maximal effect without affecting cell viability. Finally, 25 mM ammonium chloride, 125 μM chloroquine diphosphate and 6 μM monensin were chosen. PK-15 cells were cultivated for 24 hours and then inoculated with a dose of PCV2 for 1 hour at 37° C. The viral inoculum was washed-off and cells were further incubated in culture medium with or without inhibitors of endosomal-lysosomal acidification for 24 hours. Then, the culture medium containing endosomal-lysosomal system inhibitors was replaced with fresh culture medium without inhibitors. After the first cycle of PCV2 replication, at 36 hpi, cells were fixed with methanol at −20° C. for 10 minutes. Cells were stored at −20° C. until they were stained using an immunoperoxidase monolayer assay (IPMA) as described by Sanchez et al. (2003, Vet Microbiol 95, 15-25).
PK-15 cells were pre-treated with or without 500 U/ml IFN-gamma for 24 hours before they were inoculated with the same dose of PCV2 for 1 hour at 37° C. The viral inoculum was washed-off and cells were further incubated in culture medium containing inhibitors of endosomal-lysosomal acidification for 24 hours. Then, the culture medium containing endosomal-lysosomal system inhibitors was replaced with fresh culture medium without inhibitors. After the first cycle of PCV2 replication, at 36 hours post-inoculation cells were fixed with methanol at −20° C. for 10 minutes. Cells were stored at −20° C. until they were stained using an immunoperoxidase monolayer assay (IPMA) as described above. The number of infected cells per well in mock-treated cells inoculated with an equal dose of PCV2 as treated cells was used as the referent, and all results are expressed as a percentage of this referent. All experiments were performed three times, and each condition in a single experiment was performed in duplicate.

[5] = tested on: PCV2 (field strain Imp-1121); experiment: PCV2 replication in inoculated pigs given IFN-gamma or ConA; format: in vivo; conditions: pigs inoculated at 19 days of age; samples 10, 15, 21 days post inoculation
Description: Pigs are inoculated with PCV2 (field strain Imp-1121) at 19 days of age. These inoculated pigs are divided in 3 groups. One group contains control pigs (only PCV2). The second group of pigs receives recombinant IFN-gamma (100,000 U per pig every three days). The third group contains pigs that receive ConA (1.5 mg/kg every three days). At different times post inoculation (10, 15, 21 days) samples are collected and the replication of the virus is assessed.

[6] = IFN-gamma 500 U/ml pre-treatment

Row | Molecule | change in the number of PCV2-positive cells (in words) [1] | change in the number of PCV2-positive cells (in words) [2] | PCV2 titres at 1 hpi ([3]; IFN-gamma 0 U/ml) [TCID50 per 10^5 cells] | PCV2 titres at 24 hpi ([3]; IFN-gamma 0 U/ml) [TCID50 per 10^5 cells] | PCV2 titres at 48 hpi ([3]; IFN-gamma 0 U/ml) [TCID50 per 10^5 cells] | PCV2 titres at 72 hpi ([3]; IFN-gamma 0 U/ml) [TCID50 per 10^5 cells] | PCV2 titres at 1 hpi [3, 6] [TCID50 per 10^5 cells] | PCV2 titres at 24 hpi [3, 6] [TCID50 per 10^5 cells] | PCV2 titres at 48 hpi [3, 6] [TCID50 per 10^5 cells] | PCV2 titres at 72 hpi [3, 6] [TCID50 per 10^5 cells] | effect on PCV2 infection in IFN-gamma treated cells (in words) [4] | effect on PCV2 infection compared to control (in words) [4] | highest concentration exerting maximal effect without affecting cell viability (chosen) [4] [µM] | replication of PCV2 compared to control pigs (in words) [5]
1 | TNF-alpha | no significant change | did not induce a significant change | – | – | – | – | – | – | – | – | – | – | – | –
2 | Cl.N [Ammonium chloride, ammonium chloride] | – | – | 2.1 | 1.9 | 3.0 | 3.8 | 1.6 | 3.0 | 4.0 | 4.8 | enhanced PCV2 infection | enhance PCV2 infection | 25000 | –
3 | concanavalin A [ConA] | – | – | – | – | – | – | – | – | – | – | – | – | – | increase in the replication of PCV2
4 | CCN(CC)CCCC(C)Nc1ccnc2cc(Cl)ccc12 (stereo not shown) [Chloroquine diphosphate, chloroquine diphosphate] | – | – | 1.4 | 1.8 | 3.3 | 4.3 | 1.6 | 2.3 | 4.0 | 4.6 | enhanced PCV2 infection | enhance PCV2 infection | 125 | –
5 | CC[C@@]1([C@@H]2O[C@@H]([C@H]3O[C@@](O)(CO)[C@H](C)C[C@@H]3C)C[C@@H]2C)CC[C@H]([C@]2(C)CC[C@]3(C[C@H](O)[C@@H](C)[C@@H]([C@@H](C)[C@@H](OC)[C@H](C)C(=O)O)O3)O2)O1 [Monensin, monensin] | – | – | 1.9 | 2.3 | 3.9 | 3.6 | 2.0 | 2.8 | 4.6 | 4.8 | enhanced PCV2 infection | enhance PCV2 infection | 6 | –
6 | B1 | no significant change | did not induce a significant change | – | – | – | – | – | – | – | – | – | – | – | –
7 | B2 | no significant change | did not induce a significant change | – | – | – | – | – | – | – | – | – | – | – | –

Reference: patent US9119806B2, “Culturing circular ssDNA viruses for the production of vaccines” (priority 2007, dated 2015)
